Assay results taken from US20130310452A1, “ANTIFUNGAL FLAVOURING INGREDIENTS AND COMPOSITIONS” (FIRMENICH SA, priority 2011, published 2013).

System: main fungi responsible for beverage and food spoilage (yeast and mould strains)
Assay: Growth inhibition of yeast and mould strains in 105 g/L sucrose solution (OD after 21 days)
Format: cell-based
Protocol: The antifungal activity of various flavouring ingredients was evaluated against the following yeast strains: Zygosaccharomyces rouxii (DSM70835), Pichia membranaefaciens (DSM 70369), Dekkera Bruxellensis (DSM70726), Saccharomyces cerevisiae (DSM 70869) and Candida krusei (origin: Leatherhead Food Research) and against the following moulds strains: Byssochlamys nivea, Fusarium solani, Aspergillus fumigatis, Byssochlamys fulva, Aspergillus niger, Talaromyces Harzanium, Penicillium crustosum, Penicillium digitatum, Neosartorya fischeri, Penicillium roquerforti, Fusarium oxysporum.
A 105 g/L solution of sucrose in water at pH 3±0.2 was prepared. Another sucrose solution at the same concentration at pH 5±0.2 was also prepared. The sucrose solutions were autoclaved at 121° C. for 15 minutes and the pH was re-checked to ensure it remained within the range.
Test samples were then prepared in microtiter plates. An amount of 100 μL of sucrose solution prepared above, were mixed with an inoculum of 20 μL of one fungal strain, so as to achieve a microbial level comprised between 10^2 and 10^3 cfu/mL.
The flavouring ingredient or composition was then added to the microtiter plate. Dilutions were prepared in the microtiter plate for each mixture of sucrose solution and inoculum to afford final concentrations of 2000 ppm, 1000 ppm, 500 ppm, 250 ppm and 125 ppm of the ingredient or composition to be tested. One well for each mixture of sucrose solution and inoculum was kept free of flavouring ingredient or composition, to serve as a control.
The microtiter plates were then stored in a standard 25° C. incubator under aerobic conditions.
The optical density (OD) of each sample was measured after 21 days of incubation using a Bio-Tek Synergy™ HT Multi-Mode Microplate Reader (from Labtech International, UK). The wavelength was set to 380 nm for yeast strains and to 500 nm for mould strains. All tests were done in triplicate to ensure statistical relevance of the results.
The following tables indicate the OD measurements obtained when each flavouring ingredient or composition was used to inhibit growth of yeast and mould strains involved at concentration ranging between 0 and 2000 ppm. Measurements corresponding to efficient growth inhibition are indicated by grey cells in the tables below. Results were considered as evidence of efficient growth inhibition when the OD of the growth medium was below 0.2. OD measurements below 0.2 were not considered as sufficient evidence of the antifungal activity of a given flavouring ingredient or composition at a given concentration if OD measurements obtained with a higher concentration of such flavouring ingredient or composition were above 0.2.

[1] = sucrose solution at pH 3, concentrations of 1000 ppm or less, OD below 0.2 after 21 days at 25° C., 16 strains tested
[2] = sucrose solution at pH 5, concentrations of 1000 ppm or less, OD below 0.2 after 21 days at 25° C., 16 strains tested

SMILES | number of the main fungi responsible for beverage and food spoilage against which there is a strong antifungal effect [1] | number of the main fungi responsible for beverage and food spoilage against which there is a strong antifungal effect [2] | number of the main fungi responsible for beverage and food spoilage against which there is a strong antifungal effect (pH 3) | number of the main fungi responsible for beverage and food spoilage against which there is a strong antifungal effect (pH 5)
CCCCC(C)C(=O)O (stereo not drawn) [2-methylhexanoic acid] | 15 | 16 | – | –
CCCCCc1ccco1 [2-pentylfuran] | 3 | 2 | – | –
CC(C)CC=C(C=O)c1ccccc1 [5-methyl-2-phenyl-2-hexenal] | – | – | 9 | 5
CC(=O)C=CCCC(C)C [7-methyl-3-octen-2-one] | 6 | 11 | – | –
C[C@@H]1CC[C@H]2[C@H](C)C(=O)O[C@@H]2C1 [(+)-(3S,3AS,6R,7AR)-perhydro-3,6-dimethyl-benzo[B]furan-2-one] | 3 | 2 | – | –
Cc1ccc(C(C)C)cc1O [carvacrol] | 15 | 14 | – | –
CCCc1ccc(O)c(OC)c1 [dihydro eugenol] | 15 | 15 | – | –
CC(C)=CCCC(C)=CCCC(C)=CCO [farnesol] | 2 | – | – | –
COc1cc(C)cc(O)c1 [orcinyle, 3-methoxy-5-methylphenol] | 2 | – | – | –
O=C(O)c1ccccc1O [salicylic acid] | 12 | 14 | – | –
CC1=CCC(=C(C)C)CC1 [terpinolene] | 15 | 7 | – | –
Cc1ccc(C(C)C)c(O)c1 [thymol] | 4 | – | – | –
